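The compound was tested at five concentrations on cells cultured in 96-well plates, with a 48-hour exposure period. GI50 marks 50% less growth.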 Calls of active or inactive are those of the source. Rule as the data show it: active = GI50 up to about 1.1 µM and inactive = higher.
Legend:
Experiment in all cases: NCI anticancer screen, dose series, 48 h
A549 = tested on: A549
CCRF-CEM = tested on: CCRF-CEM
DU-145 = tested on: DU-145
K562 = tested on: K562
MOLT-4 = tested on: MOLT-4
Malme-3M = tested on: Malme-3M
NCI-H226 = tested on: NCI-H226
OVCAR-4 = tested on: OVCAR-4
RPMI-8226 = tested on: RPMI-8226
RXF 393 = tested on: RXF 393
SF-268 = tested on: SF-268
SNB-19 = tested on: SNB-19
SNB-75 = tested on: SNB-75
T47D = tested on: T47D
UACC-257 = tested on: UACC-257
UACC-62 = tested on: UACC-62

SMILES | GI50 (A549) | GI50 (CCRF-CEM) | GI50 (DU-145) | GI50 (K562) | GI50 (MOLT-4) | GI50 (Malme-3M) | GI50 (NCI-H226) | GI50 (OVCAR-4) | GI50 (RPMI-8226) | GI50 (RXF 393) | GI50 (SF-268) | GI50 (SNB-19) | GI50 (SNB-75) | GI50 (T47D) | GI50 (UACC-257) | GI50 (UACC-62)
O=C(O)c1ccccc1C1c2ccccc2Oc2ccccc21 | 48.6 µM (inactive) | > 100 µM (inactive) | 46.7 µM (inactive) | 75.2 µM (inactive) | 38.9 µM (inactive) | 26.7 µM (inactive) | 16.4 µM (inactive) | 69.7 µM (inactive) | 54.6 µM (inactive) | 69.5 µM (inactive) | 28.8 µM (inactive) | 85.7 µM (inactive) | 22.6 µM (inactive) | 71.9 µM (inactive) | > 100 µM (inactive) | 25.8 µM (inactive)
CCCCCCNCCCNc1c2ccccc2nc2cccc([N+](=O)[O-])c12 | 0.00409 µM (active) | 0.0229 µM (active) | 0.00537 µM (active) | 0.00376 µM (active) | 0.00658 µM (active) | 0.0206 µM (active) | 0.0547 µM (active) | 0.0147 µM (active) | 0.00247 µM (active) | 0.0148 µM (active) | 0.0163 µM (active) | 0.0845 µM (active) | 0.0485 µM (active) | 0.0369 µM (active) | 0.101 µM (active) | 0.0279 µM (active)
NNc1nnc(-c2nnc(NN)o2)o1 | > 10 µM (inactive) | > 10 µM (inactive) | > 10 µM (inactive) | > 10 µM (inactive) | > 10 µM (inactive) | > 10 µM (inactive) | > 10 µM (inactive) | > 10 µM (inactive) | > 10 µM (inactive) | > 10 µM (inactive) | > 10 µM (inactive) | > 10 µM (inactive) | – | > 10 µM (inactive) | > 10 µM (inactive) | > 10 µM (inactive)
CC1OC(O[C@@H]2OC=C(C=O)[C@@]3(O)CC[C@H](C)[C@@H]23)C(O)C(O)C1O (stereo partly specified) | > 100 µM (inactive) | > 100 µM (inactive) | > 100 µM (inactive) | > 100 µM (inactive) | > 100 µM (inactive) | > 100 µM (inactive) | > 100 µM (inactive) | > 100 µM (inactive) | > 100 µM (inactive) | > 100 µM (inactive) | > 100 µM (inactive) | > 100 µM (inactive) | > 100 µM (inactive) | > 100 µM (inactive) | > 100 µM (inactive) | > 100 µM (inactive)
Cc1ccccc1C(=O)N1CCc2c([nH]c3ccccc23)C1 | 35.9 µM (inactive) | 24.8 µM (inactive) | 25.6 µM (inactive) | 21.4 µM (inactive) | 27.4 µM (inactive) | 24.8 µM (inactive) | 21.8 µM (inactive) | 22.6 µM (inactive) | 21.2 µM (inactive) | 18.6 µM (inactive) | 35.6 µM (inactive) | 41.7 µM (inactive) | 20.6 µM (inactive) | 21.9 µM (inactive) | 23.9 µM (inactive) | 16 µM (inactive)
COC(=O)c1ccccc1C1CN=NC12Cc1c(ccc3c1CCC3)C2=O (stereo unspecified) | > 100 µM (inactive) | 49.5 µM (inactive) | > 100 µM (inactive) | 39.1 µM (inactive) | 30.5 µM (inactive) | > 100 µM (inactive) | 41.5 µM (inactive) | 45.2 µM (inactive) | 28.8 µM (inactive) | 48.6 µM (inactive) | > 100 µM (inactive) | > 100 µM (inactive) | 51.8 µM (inactive) | 54 µM (inactive) | 15.7 µM (inactive) | 55.1 µM (inactive)
CN1C2CCC1CC(CC(=O)NC(c1ccc(F)cc1)c1ccc(F)cc1)C2 (stereo unspecified) | > 100 µM (inactive) | 2.2 µM (inactive) | > 100 µM (inactive) | 37.7 µM (inactive) | 81.1 µM (inactive) | 27.5 µM (inactive) | > 100 µM (inactive) | > 100 µM (inactive) | 47 µM (inactive) | > 100 µM (inactive) | 98.4 µM (inactive) | > 100 µM (inactive) | > 100 µM (inactive) | > 100 µM (inactive) | 20 µM (inactive) | –
CC1CCCN(CC(O)CN2CCCc3ccccc32)C1 (stereo unspecified) | > 100 µM (inactive) | > 100 µM (inactive) | > 100 µM (inactive) | > 100 µM (inactive) | > 100 µM (inactive) | > 100 µM (inactive) | > 100 µM (inactive) | > 100 µM (inactive) | > 100 µM (inactive) | > 100 µM (inactive) | > 100 µM (inactive) | > 100 µM (inactive) | > 100 µM (inactive) | > 100 µM (inactive) | > 100 µM (inactive) | > 100 µM (inactive)
O/N=C(\CC(O)(C(F)(F)F)C(F)(F)F)c1cccs1 | > 10 µM (inactive) | > 10 µM (inactive) | > 10 µM (inactive) | > 10 µM (inactive) | > 10 µM (inactive) | > 10 µM (inactive) | > 10 µM (inactive) | > 10 µM (inactive) | > 10 µM (inactive) | > 10 µM (inactive) | > 10 µM (inactive) | > 10 µM (inactive) | 7.46 µM (inactive) | > 10 µM (inactive) | > 10 µM (inactive) | > 10 µM (inactive)
Cn1c(SCc2ccc(F)cc2)nnc1C12CC3CC(CC(C3)C1)C2 | 36.6 µM (inactive) | 17.1 µM (inactive) | 52 µM (inactive) | 24.2 µM (inactive) | 13.6 µM (inactive) | 19.5 µM (inactive) | 33.5 µM (inactive) | 35.2 µM (inactive) | 20.1 µM (inactive) | 27.8 µM (inactive) | 40.4 µM (inactive) | 53.5 µM (inactive) | 37.8 µM (inactive) | 56.9 µM (inactive) | 33.2 µM (inactive) | 27.1 µM (inactive)
CC(=O)OCC1OC(n2ncc(=O)[nH]c2=O)C(OC(C)=O)C1OC(C)=O (stereo unspecified) | 8.97 µM (inactive) | 0.718 µM (active) | 23 µM (inactive) | 0.832 µM (active) | 1.32 µM (inactive) | > 100 µM (inactive) | 15.3 µM (inactive) | > 100 µM (inactive) | > 100 µM (inactive) | > 100 µM (inactive) | 5.33 µM (inactive) | – | 40.3 µM (inactive) | > 100 µM (inactive) | – | 23.2 µM (inactive)
CC1OC(OC2C(O[C@H]3CC[C@@]4(C)[C@@H](CC[C@@H]5[C@@H]4CC[C@]4(C)[C@@H]6[C@H](C[C@@H]54)O[C@]4(CC[C@@H](C)CO4)[C@H]6C)C3)OC(CO)C(OC3OC(CO)C(O)C(OC4OCC(O)C(O)C4O)C3OC3OCC(O)C(O)C3O)C2O)C(O)C(O)C1O (stereo partly specified) | 0.336 µM (active) | 0.224 µM (active) | 1.32 µM (inactive) | – | 1.04 µM (active) | 1.26 µM (inactive) | 1.87 µM (inactive) | 1.47 µM (inactive) | 0.593 µM (active) | 0.54 µM (active) | 1.69 µM (inactive) | 0.995 µM (active) | 1.45 µM (inactive) | 1.8 µM (inactive) | 1.3 µM (inactive) | 0.746 µM (active)
CCOC(=O)c1c(N2CCCC2)[nH]c(=O)c(C(c2ccc(N(C)C)cc2)c2c(O)c(C(=O)OCC)c(N3CCCC3)[nH]c2=O)c1O | > 100 µM (inactive) | > 100 µM (inactive) | > 100 µM (inactive) | > 100 µM (inactive) | > 100 µM (inactive) | > 100 µM (inactive) | > 100 µM (inactive) | > 100 µM (inactive) | > 100 µM (inactive) | > 100 µM (inactive) | > 100 µM (inactive) | > 100 µM (inactive) | 48.5 µM (inactive) | > 100 µM (inactive) | > 100 µM (inactive) | > 100 µM (inactive)
C=C(C)[C@@]1(O)O[C@H]2C[C@@]3(C)OC(=CC3=O)/C(C)=C\[C@@H]3OC(=O)[C@@]1(C)[C@H]32 | 29.2 µM (inactive) | 3.94 µM (inactive) | 37.7 µM (inactive) | 4.67 µM (inactive) | 7.8 µM (inactive) | 18.5 µM (inactive) | 39.3 µM (inactive) | 20.7 µM (inactive) | 7.94 µM (inactive) | 11.1 µM (inactive) | 23 µM (inactive) | > 58.7 µM (inactive) | 23.8 µM (inactive) | 21.3 µM (inactive) | 23.2 µM (inactive) | 14.1 µM (inactive)
CC(C)(C)OC(=O)NCCCCC(NC(=O)OCc1ccccc1)C(N)=O (stereo unspecified) | > 100 µM (inactive) | > 100 µM (inactive) | > 100 µM (inactive) | > 100 µM (inactive) | > 100 µM (inactive) | > 100 µM (inactive) | > 100 µM (inactive) | > 100 µM (inactive) | > 100 µM (inactive) | > 100 µM (inactive) | > 100 µM (inactive) | > 100 µM (inactive) | > 100 µM (inactive) | > 100 µM (inactive) | > 100 µM (inactive) | > 100 µM (inactive)
COc1ccc(/N=N/c2ccc3oc(=O)c(C(=O)Nc4ccc(OC)cc4)cc3c2)cc1 | 31.4 µM (inactive) | 4.89 µM (inactive) | 15.6 µM (inactive) | 18.1 µM (inactive) | 6.15 µM (inactive) | 18.6 µM (inactive) | 13.1 µM (inactive) | 13.4 µM (inactive) | 16.3 µM (inactive) | 27 µM (inactive) | 9.02 µM (inactive) | 22.5 µM (inactive) | 16.2 µM (inactive) | 4.23 µM (inactive) | 23.8 µM (inactive) | –
O=[N+]([O-])c1ccc2c(/N=N/c3ccc4ccccc4c3O)c(O)cc(S(=O)(=O)O)c2c1 | 40.6 µM (inactive) | 8.77 µM (inactive) | 18.7 µM (inactive) | 20.6 µM (inactive) | 3.98 µM (inactive) | 18.3 µM (inactive) | 4.66 µM (inactive) | 9.64 µM (inactive) | 17.8 µM (inactive) | 17.9 µM (inactive) | 8.89 µM (inactive) | 13.2 µM (inactive) | 26.7 µM (inactive) | 20.4 µM (inactive) | 31.3 µM (inactive) | 7.21 µM (inactive)

From ChEMBL document CHEMBL1201862, “PubChem BioAssay data set” (2004)
